The results in this text go back to PMC5750218, “Protein-inspired antibiotics active against vancomycin- and daptomycin-resistant bacteria” (Nature Communications, 2018).

The data set deals with HepG2 cells. Briefly: Cytotoxicity MTT assay. In kind it is cell-based, human.

As for `CN[C@H]1C(=O)N[C@@H]2Cc3ccc(cc3)Oc3cc4cc(c3O[C@@H]3O[C@H](C(=O)O)[C@@H](O)[C@H](O)[C@H]3NC(=O)CCCCCCCCC(C)C)Oc3ccc(cc3Cl)[C@@H](O)[C@@H]3NC(=O)[C@H](NC(=O)[C@@H]4NC(=O)[C@@H](NC2=O)c2cc(cc(O)c2Cl)Oc2cc1ccc2O)c1ccc(O)c(c1)-c1c(O[C@H]2O[C@H](CO)[C@@H](O)[C@H](O)[C@@H]2O)cc(O)cc1[C@@H](C(=O)NCCCN(C)C)NC3=O` [Compound 3, Dalbavancin], the midpoint of cytotoxicity, the CC50, lay at 259 µM.

For orientation: CC50 means the concentration at which the toxic effect on the cells reaches its halfway point. High values mean lower toxicity to the cells, low ones greater toxicity to the cells.
